Some test systems named below: COLO 205 colon; RPMI-8226 leukemia; A549 NSCLC; HOP-92 NSCLC; HL-60(TB) leukemia; NCI-H23 lung; NCI-H460 lung; NCI-H226 lung; LOX IMVI melanoma; SN12C renal.
Holding throughout (test): NCI-60 cell line screen, 48 h

For seven compounds, GI50 and TGI results are on record in PubChem BioAssay (NCI).

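All cell lines were grown in 96-well plates and treated with compound for 48 hours. GI50 is the concentration that inhibits growth by half. TGI denotes the concentration required for complete inhibition of growth.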 A value given as a limit tells only on which side of the number the result lay.

Take `CCn1ccc(NS(=O)(=O)c2ccc(N)cc2)nc1=O`: the GI50 with COLO 205 colon, in the experiment with RPMI-8226 leukemia, in the experiment with A549 NSCLC, in the experiment on HOP-92 NSCLC, in the experiment on HL-60(TB) leukemia and in the experiment with NCI-H23 lung was greater than 100 µM in each case. Further, the GI50 with NCI-H460 lung, with NCI-H226 lung, in the experiment with LOX IMVI melanoma and with SN12C renal was greater than 100 µM in each case. Moreover, the TGI with COLO 205 colon, with RPMI-8226 leukemia, in the experiment with A549 NSCLC, in the experiment on HOP-92 NSCLC, in the experiment with HL-60(TB) leukemia and with NCI-H23 lung was greater than 100 µM each time. Further, the TGI in the experiment on NCI-H460 lung, in the experiment on NCI-H226 lung, with LOX IMVI melanoma and with SN12C renal was greater than 100 µM each time.
In the case of `FC(F)(F)c1cc(Nc2ccc3cc(OCCCN4CCOCC4)ccc3n2)ccc1Cl`, the GI50 in the experiment with COLO 205 colon was 1.74 µM; in the experiment with RPMI-8226 leukemia, 1.11 µM; in the experiment with A549 NSCLC, 1.93 µM; with HOP-92 NSCLC, 1.15 µM; in the experiment with HL-60(TB) leukemia, 2.24 µM; in the experiment on NCI-H23 lung, 1.94 µM. Besides, the GI50 in the experiment on NCI-H460 lung was 1.72 µM; in the experiment on NCI-H226 lung it was 2.56 µM; in the experiment on LOX IMVI melanoma it was 1.53 µM; in the experiment with SN12C renal, 2.96 µM. The TGI in the experiment with COLO 205 colon turned out to be 3.49 µM; in the experiment with RPMI-8226 leukemia it was 6.61 µM; in the experiment with A549 NSCLC it was 4.3 µM; in the experiment with HOP-92 NSCLC, 2.97 µM; with HL-60(TB) leukemia, 6.49 µM; with NCI-H23 lung, 4.8 µM. In addition, the TGI was 3.42 µM in the experiment on NCI-H460 lung, 11.7 µM in the experiment with NCI-H226 lung, 2.99 µM in the experiment on LOX IMVI melanoma and 12.9 µM in the experiment on SN12C renal.
As to `O=C1C2C3C=CC(C2C(=O)N1CN1CCSCC1)C1C2C(=O)N(CN4CCSCC4)C(=O)C2C31` (configuration not stated), the TGI in the experiment on COLO 205 colon is 97.8 µM; in the experiment on RPMI-8226 leukemia it was 61.7 µM; in the experiment with A549 NSCLC, greater than 100 µM; in the experiment with HOP-92 NSCLC, greater than 100 µM; with HL-60(TB) leukemia it was 73 µM; in the experiment on NCI-H23 lung, greater than 100 µM. Further, the TGI is greater than 57.3 µM in the experiment on NCI-H460 lung, greater than 100 µM in the experiment on NCI-H226 lung, greater than 80.5 µM with LOX IMVI melanoma and greater than 100 µM in the experiment with SN12C renal. The values for the GI50 in the experiment on RPMI-8226 leukemia, with A549 NSCLC and in the experiment on NCI-H460 lung were 32.2 µM, 77.1 µM and 40 µM, respectively.
Turning to `CN(C)CCOC(=O)Nc1nc2ccc(Sc3ccccc3)cc2[nH]1`, the GI50 with COLO 205 colon is 2.16 µM; in the experiment on RPMI-8226 leukemia, 3.72 µM; in the experiment with A549 NSCLC, 4.97 µM; in the experiment with HOP-92 NSCLC it was 1.33 µM; in the experiment with HL-60(TB) leukemia it was 3.24 µM; with NCI-H23 lung, 4.08 µM. In addition, the GI50 in the experiment with NCI-H460 lung is 3.69 µM; in the experiment on NCI-H226 lung, 4.61 µM; in the experiment with LOX IMVI melanoma, 4.26 µM; in the experiment on SN12C renal, 5.23 µM. The TGI in the experiment with COLO 205 colon is 5.19 µM; in the experiment with RPMI-8226 leukemia, 17.9 µM; with A549 NSCLC it was 18.3 µM; with HOP-92 NSCLC, 6.73 µM; in the experiment with HL-60(TB) leukemia, 8.59 µM; in the experiment on NCI-H23 lung, 19.5 µM. In addition, the TGI worked out at 13.7 µM in the experiment on NCI-H460 lung, 28.1 µM in the experiment with NCI-H226 lung, 15.9 µM in the experiment with LOX IMVI melanoma and 27.5 µM in the experiment on SN12C renal.
Regarding `CSc1ccc(C(=O)/C=C/c2ccccc2Cl)cc1`, the GI50 was 33.5 µM with COLO 205 colon; 7.11 µM in the experiment with RPMI-8226 leukemia; 15.1 µM with A549 NSCLC; 15.5 µM with HOP-92 NSCLC; 19.5 µM in the experiment with HL-60(TB) leukemia; 15.4 µM with NCI-H23 lung. For the same compound, the GI50 with NCI-H460 lung was 25.2 µM; with NCI-H226 lung, 15.8 µM; in the experiment on LOX IMVI melanoma, 6.08 µM; in the experiment with SN12C renal, 17.3 µM. In addition, the TGI is greater than 100 µM in the experiment on COLO 205 colon; 37.7 µM in the experiment with RPMI-8226 leukemia; 30.5 µM with A549 NSCLC; 32 µM in the experiment with HOP-92 NSCLC; 90.3 µM with HL-60(TB) leukemia; 32.5 µM in the experiment with NCI-H23 lung. The TGI in the experiment on NCI-H460 lung was 70 µM; in the experiment with NCI-H226 lung it was 37.6 µM; in the experiment on LOX IMVI melanoma, 19.2 µM; in the experiment with SN12C renal, 32.7 µM.
In the case of `COc1cc(/C=C/C(=O)c2c(C)nc3ccccc3c2C)ccc1OCCCN1CCN(C(=O)c2ccco2)CC1`, the GI50 is 11 µM in the experiment on COLO 205 colon; 1.92 µM in the experiment with RPMI-8226 leukemia; 11.3 µM with A549 NSCLC; 2.72 µM in the experiment with HL-60(TB) leukemia; 6.39 µM in the experiment on NCI-H23 lung; 8.91 µM with NCI-H460 lung. Besides, the GI50 in the experiment with NCI-H226 lung was 13.7 µM; in the experiment on LOX IMVI melanoma, 7.75 µM; with SN12C renal it was 11 µM. The TGI is 23 µM in the experiment on COLO 205 colon; 11.9 µM with RPMI-8226 leukemia; 27.3 µM in the experiment on A549 NSCLC; 4.74 µM with HOP-92 NSCLC; 5.63 µM with HL-60(TB) leukemia; 24.7 µM in the experiment on NCI-H23 lung. For the same compound, the TGI was determined as 21.7 µM in the experiment on NCI-H460 lung, 29.9 µM in the experiment with NCI-H226 lung, 21.5 µM in the experiment on LOX IMVI melanoma and 28.7 µM in the experiment on SN12C renal.
With `N#CC1C(=O)NC(c2ccccc2[N+](=O)[O-])c2sc3c(F)cccc3c21` (configuration not stated), the GI50 in the experiment on COLO 205 colon was 8.05 µM; in the experiment on RPMI-8226 leukemia it was 5.67 µM; in the experiment on A549 NSCLC, 1.72 µM; in the experiment on HOP-92 NSCLC it was 11.3 µM; in the experiment on HL-60(TB) leukemia, 14.2 µM; in the experiment with NCI-H23 lung, 8.78 µM. For the same compound, the GI50 in the experiment on NCI-H460 lung is 0.28 µM; in the experiment on NCI-H226 lung it was 0.273 µM; in the experiment on LOX IMVI melanoma, 15.9 µM; in the experiment with SN12C renal, 16.4 µM. Moreover, the TGI was 58.4 µM with COLO 205 colon; greater than 60.3 µM in the experiment with RPMI-8226 leukemia; 36.1 µM with A549 NSCLC; 47.3 µM in the experiment on HOP-92 NSCLC; 54.3 µM with HL-60(TB) leukemia; 45 µM in the experiment on NCI-H23 lung. Besides, the TGI with NCI-H460 lung is 4.58 µM; with NCI-H226 lung it was 2.55 µM; in the experiment on LOX IMVI melanoma it was 37.8 µM; with SN12C renal, greater than 96.3 µM.
